target: human HPK1 (MAP4K1) (Homo sapiens (Human), UniProt Q92918); assay: HPK1 IC50 Assay (TR-FRET biochemical kinase assay, STK S1 peptide substrate); details: recombinant human HPK1 kinase domain 0.15 nM, 10 μM ATP, 1 μM STK S1 peptide; geometric mean
Procedure, shortened: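 Pre-activated recombinant kinase domain (insect cells; 0.15 nM) pre-incubated with compounds for 15 min, then 10 μM ATP and 1 μM STK S1 peptide added for 3 h at 25 °C in BES pH 7.0. Phosphorylation read by HTRF (665/620 nm). IC50 from four-parameter fits normalized to staurosporine/DMSO controls, geometric mean of repeats.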

human HPK1 (MAP4K1), sequence (Q92918 17-274): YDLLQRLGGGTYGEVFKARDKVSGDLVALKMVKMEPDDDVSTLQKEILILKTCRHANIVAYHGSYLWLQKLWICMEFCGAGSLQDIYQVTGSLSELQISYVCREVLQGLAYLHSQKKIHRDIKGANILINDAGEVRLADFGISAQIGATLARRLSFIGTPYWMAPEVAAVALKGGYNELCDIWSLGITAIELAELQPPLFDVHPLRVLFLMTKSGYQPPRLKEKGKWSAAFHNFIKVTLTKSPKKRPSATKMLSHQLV

IC50 | Compound
0.2 nM | Cc1cc(Nc2nc(-c3ccc4c(c3)N([C@H]3C[C@@H](N5CCC(C)(C)C5)C3)C(=O)C43CCN(C(=O)C4CCO4)CC3)cc3ncn(C(C)C)c23)c(F)cn1 (stereo partly drawn) [Example 133]
0.1 nM | CC(C)n1cnc2cc(-c3ccc4c(c3)N([C@H]3C[C@@H](N5CCCCC5)C3)C(=O)C43CCN(C(=O)[C@@H](C)O)CC3)nc(Nc3ccnc(F)c3F)c21 [Example 102]
0.4 nM | CCC(=O)N1CCC2(CC1)C(=O)N([C@H]1C[C@@H](N3CCCCC3)C1)c1cc(-c3cc4ncn(C(C)C)c4c(Nc4ccncc4F)n3)ccc12 [Example 167, 6-(4-((3-fluoropyridin-4-yl)amino)-3-isopropyl-3H-imidazo[4,5-c]pyridin-6-yl)-1-((1s,3s)-3-(piperidin-1-yl)cyclobutyl)-1′-propionylspiro[indoline-3,4′-piperidin]-2-one]
0.4 nM | CC(C)n1cnc2cc(-c3ccc4c(c3)N([C@H]3C[C@@H](N5CCC(C)(C)C5)C3)C(=O)C43CCN(C(=O)c4cnco4)CC3)nc(Nc3ccncc3F)c21 [Example 158]
0.8 nM | CCn1cnc2cc(-c3ccc4c(c3)N([C@H]3C[C@@H](N5CCCCC5)C3)C(=O)C43CCN(C(=O)C(C)(C)C)CC3)nc(Nc3ccncc3F)c21 [Example 169]
0.3 nM | CC(C)n1cnc2cc(-c3ccc4c(c3)N([C@H]3C[C@@H](N5CCCCC5)C3)C(=O)C43CCN(C(=O)C(C)(C)C#N)CC3)nc(Nc3ccncc3F)c21 [Example 141]
0.3 nM | CC(C)n1cnc2cc(-c3ccc4c(c3)N([C@H]3C[C@@H](N5CCCCC5)C3)C(=O)C43CCN(C(=O)C(C)(C)CO)CC3)nc(Nc3ccncc3F)c21 [Example 106, 6-(4-((3-fluoropyridin-4-yl)amino)-3-isopropyl-3H-imidazo[4,5-c]pyridin-6-yl)-1′-(3-hydroxy-2,2-dimethylpropanoyl)-1-((1s,3s)-3-(piperidin-1-yl)cyclobutyl)spiro[indoline-3,4′-piperidin]-2-one]
0.9 nM | CC(C)n1cnc2cc(-c3ccc4c(c3)N([C@H]3C[C@@H](N5CCC[C@@H](C)C5)C3)C(=O)C4(C)C)nc(Nc3ccncc3F)c21 [Example 191]
0.4 nM | CC(C)n1cnc2cc(-c3ccc4c(c3)N([C@H]3C[C@@H](N5CCC(C)(C)C5)C3)C(=O)C43CCN(C(=O)c4ncco4)CC3)nc(Nc3ccncc3F)c21 [Example 159]
0.5 nM | CC(C)n1cnc2cc(-c3ccc4c(c3)N([C@H]3C[C@@H](N5CCCCC5)C3)C(=O)C43CCN(C(=O)C(C)(C)CF)CC3)nc(Nc3ccncc3F)c21 [Example 139]
4.5 nM | COC(C)(C)CN(C)[C@H]1C[C@@H](N2C(=O)C3(CCN(C(C)=O)CC3)c3ccc(-c4cc5ncn(C(C)C)c5c(Nc5ccncc5F)n4)cc32)C1 [Example 179]
0.5 nM | CC(C)n1cnc2cc(-c3ccc4c(c3)N([C@H]3C[C@@H](N5CCCCC5)C3)C(=O)C43CCN(C(=O)C4(F)CC4)CC3)nc(Nc3ccncc3F)c21 [Example 150]
0.3 nM | COCC(C)(C)C(=O)N1CCC2(CC1)C(=O)N([C@H]1C[C@@H](N3CCCCC3)C1)c1cc(-c3cc4ncn(C(C)C)c4c(Nc4ccncc4F)n3)ccc12 [Example 140]
0.3 nM | CC(C)n1cnc2cc(-c3ccc4c(c3)N([C@H]3C[C@@H](N5CCC(C)(C)C5)C3)C(=O)C43CCN(C(=O)c4cocn4)CC3)nc(Nc3ccncc3F)c21 [Example 154]

same assay, conditions: recombinant human HPK1 kinase domain 0.15 nM, 10 μM ATP, 1 μM STK S1 peptide; geometric mean of multiple experiments

IC50 | Compound
0.7 nM | CC(C)n1cnc2cc(-c3ccc4c(c3)N([C@H]3C[C@@H](N5C[C@H]6CC[C@@H]5C6)C3)C(=O)C4(C)C)nc(Nc3ccncc3F)c21 [Example 66]
0.7 nM | CC(C)n1cnc2cc(-c3ccc4c(c3)N([C@H]3C[C@@H](N5CC6CCC5CC6)C3)C(=O)C4(C)C)nc(Nc3ccncc3F)c21 [Example 58]
0.2 nM | CC(=O)N1CCC2(CC1)C(=O)N([C@H]1C[C@@H](N3CC4CCC(C3)O4)C1)c1cc(-c3cc4ncn(C(C)C)c4c(Nc4ccncc4F)n3)ccc12 [Example 34]
0.3 nM | CC(C)n1cnc2cc(-c3ccc4c(c3)N([C@H]3C[C@@H](N5CC6C(C5)C6(C)C)C3)C(=O)C4(C)C)nc(Nc3ccncc3F)c21 (stereo partly drawn) [Example 60]
0.09 nM | CC(C)n1cnc2cc(-c3ccc4c(c3)N([C@H]3C[C@@H](N5CCC(C)(C)C5)C3)C(=O)C43CCN(C(=O)C4CCCCO4)CC3)nc(Nc3ccncc3F)c21 (stereo partly drawn) [Example 24]
0.3 nM | CC(C)n1cnc2cc(-c3ccc4c(c3)N([C@H]3C[C@@H](N5CCC(C)(C)C5)C3)C(=O)C43CCN(C(=O)C4(C)CCOC4)CC3)nc(Nc3ccncc3F)c21 (stereo partly drawn) [Example 18]
1.7 nM | CC(C)CN[C@H]1C[C@@H](N2C(=O)C(C)(C)c3ccc(-c4cc5ncn(C(C)C)c5c(Nc5ccncc5F)n4)cc32)C1 [Example 84]
13.2 nM | CC(C)n1cnc2cc(-c3cnc4c(c3)N([C@H]3C[C@@H](N5CCCCC5)C3)C(=O)C4(C)C)nc(Nc3ccncc3F)c21 [Example 51]
0.2 nM | CC(C)n1cnc2cc(-c3ccc4c(c3)N([C@H]3C[C@@H](N5CCCCC5)C3)C(=O)C43CCN(C(=O)C4(C)CCO4)CC3)nc(Nc3ccncc3F)c21 (stereo partly drawn) [Example 11]
1.1 nM | CC(=O)N1CCC2(CC1)C(=O)N([C@H]1C[C@@H](N3CCCCC3)C1)c1cc(-c3cc4ncn(C(C)C)c4c(Nc4cc(C)ncc4F)n3)ccc12 [Example 31]
0.3 nM | CC(=O)N1CCC2(CC1)C(=O)N([C@H]1C[C@@H](N3C[C@@H](C)[C@@H](C)C3)C1)c1cc(-c3cc4ncn(C(C)C)c4c(Nc4ccncc4F)n3)ccc12 [Example 33]
0.3 nM | CC(C)n1cnc2cc(-c3ccc4c(c3)N([C@H]3C[C@@H](N5CCC(C)(C)C5)C3)C(=O)C43CCN(C(=O)[C@@H]4CCOC4)CC3)nc(Nc3ccncc3F)c21 [Example 17]
0.5 nM | CC(C)n1cnc2cc(-c3ccc4c(c3)N([C@H]3C[C@@H](N5CCC6(CC6)C5)C3)C(=O)C43CCN(C(=O)C4(C)COC4)CC3)nc(Nc3ccncc3F)c21 [Example 5]
0.8 nM | CC(C)n1cnc2cc(-c3ccc4c(c3)N([C@H]3C[C@@H](N5CC6CC6C5)C3)C(=O)C4(C)C)nc(Nc3ccncc3F)c21 (stereo partly drawn) [Example 61]
0.09 nM | CC(C)n1cnc2cc(-c3ccc4c(c3)N([C@H]3C[C@@H](N5CCCCCC5)C3)C(=O)C4(C)C)nc(Nc3ccncc3F)c21 [Example 59]

Compound | IC50
CC(C)n1cnc2cc(-c3ccc4c(c3)N([C@H]3C[C@@H](N5CC[C@H](F)C5)C3)C(=O)C43CCN(C4COC4)CC3)nc(Nc3ccncc3F)c21 [Example 46] | 1.1 nM
CC(C)n1cnc2cc(-c3ccc4c(c3)N([C@H]3C[C@@H](N5CC6CC(C6)C5)C3)C(=O)C43CCN(C(=O)C4(C)COC4)CC3)nc(Nc3ccncc3F)c21 [Example 7] | 0.2 nM
CC[C@H](C)n1cnc2cc(-c3ccc4c(c3)N([C@H]3C[C@@H](N5CCCCC5)C3)C(=O)C43CCN(C4COC4)CC3)nc(Nc3ccncc3F)c21 [Example 89] | 0.5 nM
CC(C)n1cnc2cc(-c3ccc4c(c3)N([C@H]3C[C@@H](N5CCC(C)(C)C5)C3)C(=O)C43CCN(C(=O)[C@H]4CCO4)CC3)nc(Nc3ccncc3F)c21 (single isomer, unassigned) [Example 78B, 1-((1s,3s)-3-(3,3-dimethylpyrrolidin-1-yl)cyclobutyl)-6-(4-((3-fluoropyridin-4-yl)amino)-3-isopropyl-3H-imidazo[4,5-c]pyridin-6-yl)-1′-(oxetane-2-carbonyl)spiro[indoline-3,4′-piperidin]-2-one] | 0.3 nM

From patent US11071730B2, “Substituted 6-azabenzimidazole compounds” (Gilead Sciences, Inc., priority 2018, dated 2021)
